Consider one compound from US6517870B1, “Oral formulation comprising biguanide and an organic acid” (Sumitomo Pharmaceuticals Company, Limited, priority 1998, dated 2003).

Counter-ions that a name gives are not always drawn.

This data set is described as follows: Stability experiment: remaining amount of metformin by HPLC after heating. In kind it is physicochemical. The conditions noted are these: below pH 3.5. The protocol:
Tasting and stability experiments on the solutions at various pH of Example 13 were carried out, in the same manner as Experiment 1. A stability experiment was carried out by measuring the remaining amount of metformin in the solutions with HPLC after heating the solutions in vials at 60 C. for 2 weeks.

For the compound `CN(C)C(=N)N=C(N)N` [Metformin hydrochloride], the stability in solution entry is “not stable”.
